Measured values published in EP0475413B1, “Carbocyclic nucleoside analogs useful as immunosuppressants” (HOECHST MARION ROUSSEL, INC., priority 1990, dated 1992).
Structures can show the parent of a compound that is named as a salt.

Tests used:
rat PMNs = test: Inhibition of rrIFN-γ priming of rat PMN, Superoxide Anion (O2-) assay; format: cell-based; details: PMNs from rat air pouch elicited with rHuIL-1 (25ng/pouch); PMA (200ng/mL) as stimulus, rrIFN-γ (1000 Units/mL); compound 0 to 1000µM; superoxide anion readout; read-out: IC₅₀ (inhibits the rrIFN-γ priming of rat PMN in vitro)
Description: The rat air pouch model of inflammation was used to obtain rat PMNs using 25ng/pouch of recombinant human interleukin-1 (rHuIL-1) to elicit the cells essentially according to the method of Esser et al. [Internat. J. Tissue Reactions XI, 291 (1989)]. PMNs were incubated along with phorbol myristate acetate (PMA) (200ng/mL), which acts as a soluble stimulus, and rrIFN-γ (1000 Units/mL), which act as a stimulatory lymphokine, in the presence of various concentrations of (1R,3S)-Cis-1-(9-adenyl)-3-hydroxy-4-cyclopentene (0 to 1000µM). The degree of macrophage priming was measured using the Superoxide Anion (O₂⁻) assay as described by Edwards et al. [Science 239, 769 (1988)].

[1] = tested on: Rat peritoneal macrophages; test: Inhibition of priming of rat peritoneal macrophages, Superoxide Anion (O2-) assay; format: cell-based; details: Peritoneal macrophage, opsonized zymosan (3 mg/mL) as stimulus, rrIFN-γ (1000Units/mL), compound 0 to 1000µM, superoxide anion readout, read-out: IC₅₀ (inhibits the priming of rat macrophages in vitro)
Description: Rat peritoneal macrophages were isolated and grown in cell culture essentially as described by Edwards et al. [Science 239, 769 (1988)]. Macrophages were incubated along with opsonized zymosan (3 mg/mL), which acts as a particulate stimulus, and recombinant rat γ-interferon (rrIFN-γ)(1000Units/mL), which acts as an activating lymphokine, in the presence of various concentrations of (1R,3S)-Cis-1-(9-adenyl)-3-hydroxy-4-cyclopentene (0 to 1000µM). The degree of macrophage priming was measured using the Superoxide Anion (O₂⁻) assay as described by Edwards et al. [Science 239, 769 (1988)].

## Nc1ncnc2c1ncn2[C@H]1C=C[C@@H](O)C1 [Example 1, (1R,3S)-Cis-1-(9-adenyl)-3-hydroxy-4-cyclopentene hydrochloride]
Rat PMNs
  IC50: 0.015 µM
[1]
  IC50: 25 µM
